Test results as given in patent US11040028B2, “Penicinotam derivative, preparation method and use thereof” (OCEAN UNIVERSITY OF CHINA, priority 2017, dated 2021).

Experiments:
Type in all cases: cell-based
[1] = system: mouse macrophages (RAW264.7); assay: Lipopolysaccharide-induced NO secretion in macrophages (Griess); details: Mus musculus, RAW264.7, 24 h, RAW264.7, LPS 1 μg/ml, a/b isomers given as first/second symbol, read-out: IC50 (μM), inhibition of lipopolysaccharide-induced NO secretion in macrophages
How it was run: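 Absorbance at 548 nm after Griess reagent addition to culture supernatant gave NO content; inhibition rate was derived relative to blank control. Cells were mouse RAW264.7 macrophages exposed to compounds and 1 μg/ml LPS for 24 hours.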

[2] = system: human dermal fibroblasts CCC-ESF-1; assay: Anti-fibrosis activity test: inhibition of proliferation of human dermal fibroblasts CCC-ESF-1 (CCK-8); details: Fibroblast
How it was run: (§1)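 A CCK-8 proliferation assay was run: cells at 2×10^4 cells/mL, adherent for 24 h, then incubated 48 h at 37° C with compound dilutions. A450 was recorded 2 h after CCK-8 addition and converted to percent inhibition versus blank for IC50 determination.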

[3] = system: human hepatic stellate cells LX-2; assay: Anti-fibrosis activity test: inhibition of proliferation of human hepatic stellate cells LX-2 (CCK-8); details: Homo sapiens, 48 h
How it was run: as §1

[4] = system: cardiac fibroblast RAT-iCell-C002; assay: Anti-fibrosis activity test: inhibition of proliferation of cardiac fibroblast RAT-iCell-C002 (CCK-8); details: Cardiac fibroblast, 48 h
How it was run: as §1

[5] = system: NF-κB; assay: Immunological activity test: inhibition of NF-κB activity; details: initial concentration of 30 μM; a/b isomers given as first/second symbol; read-out: IC50 (μM), inhibitory activity against NF-κB
How it was run: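 Compounds were first screened for inhibition of NF-κB activity at 30 μM, with parthenolide as the positive control. IC50 values were then determined for the compounds by further analysis of the assay data.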

[6] = system: human lung fibroblasts HFL1; assay: Anti-fibrosis activity test: inhibition of proliferation of human lung fibroblasts HFL1 (CCK-8); details: Homo sapiens, HFL1, 48 h
How it was run: as §1

[7] = system: human fibrosarcoma cells HT-1080; assay: Anti-fibrosis activity test: inhibition of proliferation of human fibrosarcoma cells HT-1080 (CCK-8); details: Homo sapiens, HT-1080, 48 h
How it was run: as §1

[8] = system: human embryonic lung fibroblast IMR-90; assay: Anti-fibrosis activity test: inhibition of proliferation of human embryonic lung fibroblast IMR-90 (CCK-8)
How it was run: as §1

[9] = system: BHK-21 cells; assay: Anti-fibrosis activity test: inhibition of BHK-21 cell proliferation (CCK-8); details: Mesocricetus auratus, BHK-21, 48 h
How it was run: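 Cells seeded at 2×10^4 cells/mL, allowed to adhere 24 hours, then exposed to graded compound concentrations in triplicate for 48 hours at 37° C, 5% CO2. CCK-8 added for 2 hours, absorbance read at 450 nm; inhibition versus blank control used to derive IC50. Pirfenidone served as positive control.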

[10] = human dermal fibroblasts CCC-ESF-1, CCK-8, 48 hours
[11] = human hepatic stellate cells LX-2, CCK-8, 48 hours
[12] = cardiac fibroblast RAT-iCell-C002, CCK-8, 48 hours
[13] = human lung fibroblasts HFL1, CCK-8, 48 hours
[14] = human fibrosarcoma cells HT-1080, CCK-8, 48 hours
[15] = human embryonic lung fibroblast IMR-90, CCK-8, 48 hours
[16] = CCK-8, 48 hours after administration
[17] = Homo sapiens, CCC-ESF-1 cells, 48 h, CCK-8
[18] = Homo sapiens, IMR-90 cells, 48 h, CCK-8

| SMILES | IC50 [1] [µM] | IC50 [5] [µM] | IC50 [7, 14] [mM] | IC50 ([7]; HT-1080 cells, 48 h, CCK-8) [mM] | IC50 [2, 10] [mM] | IC50 [3, 11] [mM] | IC50 [4, 12] [mM] | IC50 [6, 13] [mM] | IC50 [8, 15] [mM] | IC50 [9, 16] [mM] | IC50 [2, 17] [mM] | IC50 ([3]; LX-2, 48 h, LX-2 cells, CCK-8) [mM] | IC50 ([4]; RAT-iCell-C002 cells, CCK-8) [mM] | IC50 ([6]; HFL1 cells, 48 h, CCK-8) [mM] | IC50 [8, 18] [mM] | IC50 ([9]; 48 h, CCK-8) [mM] |
| --- | --- | --- | --- | --- | --- | --- | --- | --- | --- | --- | --- | --- | --- | --- | --- | --- |
| O=C1c2c([nH]c3cc(F)ccc3c2=O)-c2cccn21 [Compound 488a, 6-Fluoro-9H-pyrrolizino[1,2-b]quinoline-9,10(4H)-dione] | 10 to 50 | 1 to 10 | 0.05 to 5 |  | 0.05 to 5 | < 0.05 | 0.05 to 5 | 0.05 to 5 | 0.05 to 5 | 0.05 to 5 |  |  |  |  |  |  |
| O=C1c2c(n(CCN3CCNCC3)c3ccccc3c2=O)-c2cccn21 [Compound 98a, 4-(2-(Piperazin-1-yl)ethyl)-9H-pyrrolizino[1,2-b]quinoline-9,10(4H)-dione] | 1 to 10 | 1 to 10 | 0.05 to 5 |  | < 0.05 | < 0.05 | 0.05 to 5 | 0.05 to 5 | < 0.05 | < 0.05 |  |  |  |  |  |  |
| Cc1ccc2n1C(=O)c1[nH]c3ccccc3c(=O)c1-2 [Compound 799a, 3-Methyl-5H-pyrrolizino[2,1-b]quinoline-5,11(6H)-dione] | 1 to 10 | 1 to 10 |  | < 0.05 |  |  |  |  |  |  | 0.05 to 5 | 0.05 to 5 | 0.05 to 5 | 0.05 to 5 | 0.05 to 5 | 0.05 to 5 |
| Cc1ccc2[nH]c3c(c(=O)c2c1)C(=O)n1cccc1-3 [Compound 696a, 7-Methyl-9H-pyrrolizino[1,2-b]quinoline-9,10(4H)-dione] | 1 to 10 | 1 to 10 |  | 0.05 to 5 |  |  |  |  |  |  | 0.05 to 5 | 0.05 to 5 | 0.05 to 5 | 0.05 to 5 | 0.05 to 5 | 0.05 to 5 |
| CC(C)=CCn1c2c(c(=O)c3cc(F)ccc31)C(=O)n1cccc1-2 [Compound 112a, 7-Fluoro-4-(3-methylbut-2-en-1-yl)-9H-pyrrolizino[1,2-b]quinoline-9,10(4H)-dione] | 1 to 10 | 10 to 50 | 0.05 to 5 |  | 0.05 to 5 | 0.05 to 5 | 0.05 to 5 | 0.05 to 5 | 0.05 to 5 | 5 to 20 |  |  |  |  |  |  |
| COc1c2c(nc3cc(N4CCNCC4)ccc13)-c1cccn1C2=O [Compound 328b, 9-methoxy-6-(piperazin-1-yl)-10H-pyrrolizino[1,2-b]quinolin-10-one] | 1 to 10 | 1 to 10 | 0.05 to 5 |  | 0.05 to 5 | 0.05 to 5 | 0.05 to 5 | 0.05 to 5 | 0.05 to 5 | 0.05 to 5 |  |  |  |  |  |  |
| CN(C)CCn1c2c(c(=O)c3ccccc31)C(=O)n1cccc1-2 [Compound 12a, 4-(2-(Dimethylamino)ethyl)-9H-pyrrolizino[1,2-b]quinoline-9,10(4H)-dione] | 1 to 10 | 1 to 10 | 0.05 to 5 |  | 0.05 to 5 | 0.05 to 5 | 0.05 to 5 | 0.05 to 5 | 0.05 to 5 | 0.05 to 5 |  |  |  |  |  |  |
| O=C1c2c(n(CCO)c3ccccc3c2=O)-c2cccn21 [Compound 11a, 4-(2-Hydroxyethyl)-9H-pyrrolizino[1,2-b]quinoline-9,10(4H)-dione] | 1 to 10 | 1 to 10 | 0.05 to 5 |  | 0.05 to 5 | 0.05 to 5 | 0.05 to 5 | 0.05 to 5 | 0.05 to 5 | 0.05 to 5 |  |  |  |  |  |  |

Now from value to molecule, other results behind:

| IC50 [1] [µM] | IC50 [5] [µM] | IC50 [7, 14] [mM] | IC50 ([7]; HT-1080 cells, 48 h, CCK-8) [mM] | SMILES | IC50 [2, 10] [mM] | IC50 [3, 11] [mM] | IC50 [4, 12] [mM] | IC50 [6, 13] [mM] | IC50 [8, 15] [mM] | IC50 [9, 16] [mM] | IC50 [2, 17] [mM] | IC50 ([3]; LX-2, 48 h, LX-2 cells, CCK-8) [mM] | IC50 ([4]; RAT-iCell-C002 cells, CCK-8) [mM] | IC50 ([6]; HFL1 cells, 48 h, CCK-8) [mM] | IC50 [8, 18] [mM] | IC50 ([9]; 48 h, CCK-8) [mM] |
| --- | --- | --- | --- | --- | --- | --- | --- | --- | --- | --- | --- | --- | --- | --- | --- | --- |
| 1 to 10 | 10 to 50 | 0.05 to 5 |  | N#Cc1cccc2nc3c(c(O)c12)C(=O)n1cccc1-3 [Compound 476b, 9-hydroxy-10-oxo-10H-pyrrolizino[1,2-b]quinoline-8-carbonitrile] | 0.05 to 5 | 0.05 to 5 | 0.05 to 5 | 0.05 to 5 | 0.05 to 5 | 0.05 to 5 |  |  |  |  |  |  |
| 1 to 10 | 1 to 10 | 0.05 to 5 |  | CCOC(=O)COc1c2c(nc3ccccc13)-c1cccn1C2=O [Compound 654b, ethyl 2-((10-oxo-10H-pyrrolizino[1,2-b]quinolin-9-yl)oxy)acetate] | < 0.05 | 0.05 to 5 | 0.05 to 5 | 0.05 to 5 | 0.05 to 5 | 0.05 to 5 |  |  |  |  |  |  |
| 10 to 50 | 1 to 10 | < 0.05 |  | O=C1c2c(n(Cc3c(Cl)cccc3Cl)c3ccccc3c2=O)-c2cccn21 [Compound 614a, 4-(2,6-Dichlorobenzyl)-9H-pyrrolizino[1,2-b]quinoline-9,10(4H)-dione] | 0.05 to 5 | 0.05 to 5 | 0.05 to 5 | 0.05 to 5 | 0.05 to 5 | 0.05 to 5 |  |  |  |  |  |  |
| 1 to 10 | 1 to 10 | 0.05 to 5 |  | O=C1c2c(nc3ccccc3c2OCc2c(F)c(F)c(F)c(F)c2F)-c2cccn21 [Compound 586b, 9-((perfluorophenyl)methoxy)-10H-pyrrolizino[1,2-b]quinolin-10-one] | 0.05 to 5 | 0.05 to 5 | 0.05 to 5 | 0.05 to 5 | 0.05 to 5 | 0.05 to 5 |  |  |  |  |  |  |
| 1 to 10 | 1 to 10 | 0.05 to 5 |  | O=C1c2c(nc3ccccc3c2OCc2ccccc2)-c2cccn21 [Compound 103b, 9-(benzyloxy)-10H-pyrrolizino[1,2-b]quinolin-10-one] | 0.05 to 5 | 0.05 to 5 | 0.05 to 5 | 0.05 to 5 | < 0.05 | 0.05 to 5 |  |  |  |  |  |  |
| 10 to 50 | 0.1 to 1 | 0.05 to 5 |  | O=C1c2c(n(Cc3ccc(-c4ccccc4)cc3)c3ccccc3c2=O)-c2cccn21 [Compound 649a, 4-([1,1′-Biphenyl]-4-ylmethyl)-9H-pyrrolizino[1,2-b]quinoline-9,10(4H)-dione] | 0.05 to 5 | 0.05 to 5 | 0.05 to 5 | 0.05 to 5 | 0.05 to 5 | 0.05 to 5 |  |  |  |  |  |  |
| 0.1 to 1 | 1 to 10 | 0.05 to 5 |  | O=C1c2c(nc3ccc(OC(F)(F)F)cc3c2O)-c2cccn21 [Compound 306b, 9-hydroxy-7-(trifluoromethoxy)-10H-pyrrolizino[1,2-b]quinolin-10-one] | 0.05 to 5 | 0.05 to 5 | 0.05 to 5 | 0.05 to 5 | 0.05 to 5 | 0.05 to 5 |  |  |  |  |  |  |
| 1 to 10 | 1 to 10 | 0.05 to 5 |  | O=C1c2c(n(Cc3ccc(F)c(F)c3)c3ccccc3c2=O)-c2cccn21 [Compound 601a, 4-(3,4-Difluorobenzyl)-9H-pyrrolizino[1,2-b]quinoline-9,10(4H)-dione] | 0.05 to 5 | 0.05 to 5 | 0.05 to 5 | 0.05 to 5 | 0.05 to 5 | 0.05 to 5 |  |  |  |  |  |  |
| 1 to 10 | 1 to 10 | 0.05 to 5 |  | O=C1c2c(nc3ccccc3c2OCc2cc(F)c(F)c(F)c2F)-c2cccn21 [Compound 587b, 9-((2,3,4,5-tetrafluorobenzyl)oxy)-10H-pyrrolizino[1,2-b]quinolin-10-one] | 0.05 to 5 | 0.05 to 5 | 0.05 to 5 | 0.05 to 5 | 0.05 to 5 | 0.05 to 5 |  |  |  |  |  |  |
| 1 to 10 | 1 to 10 | < 0.05 |  | O=C1c2c(nc3ccccc3c2OCc2ccc(Cl)cc2)-c2cccn21 [Compound 589b, 9-((4-chlorobenzyl)oxy)-10H-pyrrolizino[1,2-b]quinolin-10-one] | 0.05 to 5 | < 0.05 | 0.05 to 5 | 0.05 to 5 | 0.05 to 5 | 0.05 to 5 |  |  |  |  |  |  |
| 1 to 10 | 0.1 to 1 | 0.05 to 5 |  | O=C1c2c(nc3ccccc3c2OCc2ccc(C(F)(F)F)cc2)-c2cccn21 [Compound 591b, 9-((4-(trifluoromethyl)benzyl)oxy)-10H-pyrrolizino[1,2-b]quinolin-10-one] | 0.05 to 5 | 0.05 to 5 | 0.05 to 5 | 0.05 to 5 | 0.05 to 5 | 0.05 to 5 |  |  |  |  |  |  |
